# Where “and” joins values, the source holds several entries; their conditions need not be identical. Equal values may be shown once. Read-outs that look alike come from different tables or passages of the source.
# What was measured:
# Ovary TOV21G cells = assay: cells
# Protocol: (§1) The percentage of growth inhibition was calculated as follows: […]
# Ovary SKOV3 cells = assay: cells
# Protocol: as §1
# Prostate DU145 cells = assay: cells
# Protocol: as §1
# human cancer cell lines = assay: cells
# Protocol: as §1
# Prostate PC3 cells = assay: cells
# Protocol: as §1
# A549 NSCLC cells = assay: cells
# Protocol: as §1
# Prostate LNCaP cells = assay: cells
# Protocol: as §1
# NCI-H1975 NSCLC cells = assay: cells
# Protocol: as §1
# [1] = system: Mammary gland HCC38 cells; assay: CyQUANT-NF proliferation assay, 48-h drug treatment; type: cell-based
# [2] = system: Mammary gland MDA-MB-231 cells; assay: as above; type: cell-based
# Protocol: Since the BRG prodrugs are composed of WR1065 as one of the major constituents, assays were conducted to determine if factors reported to modulate the activity of amino acid and polyamine plasma membrane transport systems impacted the efficacy of 4SP65 or 1LP65 in selected cancer cell lines. HL60 cells were exposed to 4SP65 with up to 0.5 mM NaCl, MBA-MD-231 cells were tested in the presence and absence of medium supplemented with estradiol plus insulin (in the BulletKit™ for growth supplements for NHMECs), HCC38 cells were exposed to 4SP65 with and without 10 µM insulin added to the growth medium, and multiple cells lines were pretreated for 24 h with 1 mM DFMO prior to starting exposures to 4SP65.
# as §1
# [3] = 48-h treatment, amifostine ND = not definable up to 500 µM
# [4] = read-out: LC50, 48-h treatment, amifostine ND = not definable up to 500 µM
# [5] = 1LP65: average across 11 cell lines, 48 h
# [6] = 15 cell lines for 4SP65, 11 for 1LP65
# [7] = average of HCC38, MDA-MB-231, H1975, DU145, PC3
# [8] = averages of dose-response metrics across the panel
# [9] = averages over 11 cell lines, minimal fold differences
# [10] = pretreated with 1 mM DFMO for 24 h, then 48 h
# [11] = without DFMO pretreatment, 48 h
# [12] = 48-h treatment, amifostine ND = not definable up to 500 µM, read-out: LC50 (the source's name)
smiles,measurement,setting,value
"COCCOCCOCCOCCOCCOCCSSCCNCCCN.O=C(O)C(F)(F)F.O=C(O)C(F)(F)F [1LP65, m-PEG6-S-S-WR1065]",GI50,Ovary TOV21G cells; [3],21.3 ± 3.8 µM
same,IC50,Ovary TOV21G cells; [3],26.3 ± 3.6 µM
same,LC99,Ovary TOV21G cells; [3],92.0 ± 2.8 µM
same,TGI,Ovary TOV21G cells; [3],32.7 ± 6.2 µM
same,Dose reduction value AMF ÷ 1LP65,Ovary TOV21G cells; at GI50,2.2 fold
same,Dose reduction value AMF ÷ 1LP65,Ovary TOV21G cells; at IC50,1.6 fold
same,CC50,Ovary TOV21G cells; [4],51.3 ± 12.2 µM
same,GI50,Ovary SKOV3 cells; [3],40.9 ± 0.5 µM
same,IC50,Ovary SKOV3 cells; [3],45.5 ± 2.5 µM
same,LC99,Ovary SKOV3 cells; [3],98.9 ± 8.6 µM
same,TGI,Ovary SKOV3 cells; [3],50.3 ± 2.0 µM and 50.3 µM
same,Dose reduction value AMF ÷ 1LP65,Ovary SKOV3 cells; at GI50,2.0 fold
same,Dose reduction value AMF ÷ 1LP65,Ovary SKOV3 cells; at IC50,6.5 fold
same,CC50,Ovary SKOV3 cells; [4],68.8 ± 1.8 µM
same,GI50,Prostate DU145 cells; [3],26.3 ± 3.8 µM
same,IC50,Prostate DU145 cells; [3],39.8 ± 3.1 µM
same,LC99,Prostate DU145 cells; [3],83.5 ± 5.5 µM
same,TGI,Prostate DU145 cells; [3],52.8 ± 5.3 µM and 52.8 µM
same,Dose reduction value AMF ÷ 1LP65,Prostate DU145 cells; at GI50,4.8 fold
same,Dose reduction value AMF ÷ 1LP65,Prostate DU145 cells; at IC50,8.0 fold
same,CC50,Prostate DU145 cells; [4],71.4 ± 4.3 µM
same,fold greater effect than amifostine,human cancer cell lines,2.1 fold
same,"LC99, All cell lines",human cancer cell lines; [5],126 ± 15.8 µM
same,"TGI, All cell lines",human cancer cell lines; [5],69.3 ± 10.3 µM
same,"LC99, range for individual cell lines",human cancer cell lines; [6],83.5 to 234 µM
same,"TGI, range for individual cell lines",human cancer cell lines; [6],32.7 to 126 µM
same,fold lower concentrations in TP53-mutant compared to TP53 wild-type cell lines,"human cancer cell lines; H1437 and TOV21G excluded, across dose-response metrics",~ 1.8 fold
same,"LC99, TP53 Wild-Type","human cancer cell lines; average of A549, H460, LNCaP",161 ± 20.4 µM
same,"TGI, TP53 Wild-Type","human cancer cell lines; average of A549, H460, LNCaP",101 ± 20.1 µM
same,"LC99, TP53 Mutant",human cancer cell lines; [7],95.1 ± 9.9 µM
same,"TGI, TP53 Mutant",human cancer cell lines; [7],52.0 ± 7.3 µM
same,"fold more potent than amifostine as a cytostatic agent, average",human cancer cell lines; [8],5.9 fold
same,"fold more potent than amifostine as a cytostatic agent, range",human cancer cell lines; [8],5.0- to 6.4 fold
same,Fold difference in drug potency vs amifostine: GI50,human cancer cell lines; [9],> 5.0
same,Fold difference in drug potency vs amifostine: IC50,human cancer cell lines; [9],> 6.4
same,Fold difference in drug potency vs amifostine: TGI,human cancer cell lines; [9],> 6.3
same,GI50,"human cancer cell lines; read-out: GI50, All cell lines, 1LP65: average across 11 cell lines, 48 h",41.2 ± 5.4 µM
same,GI50,"human cancer cell lines; read-out: GI50, TP53 Mutant, average of HCC38, MDA-MB-231, H1975, DU145, PC3",33.3 ± 3.7 µM
same,GI50,"human cancer cell lines; read-out: GI50, TP53 Wild-Type, average of A549, H460, LNCaP",52.7 ± 12.4 µM
same,GI50,"human cancer cell lines; read-out: GI50, range for individual cell lines, 15 cell lines for 4SP65, 11 for 1LP65",21.3 to 77.7 µM
same,CC50,"human cancer cell lines; read-out: LC50, All cell lines, 1LP65: average across 11 cell lines, 48 h",94.6 ± 12.8 µM
same,CC50,"human cancer cell lines; read-out: LC50, TP53 Mutant, average of HCC38, MDA-MB-231, H1975, DU145, PC3",72.9 ± 9.5 µM
same,CC50,"human cancer cell lines; read-out: LC50, TP53 Wild-Type, average of A549, H460, LNCaP",133 ± 19.1 µM
same,CC50,"human cancer cell lines; read-out: LC50, range for individual cell lines, 15 cell lines for 4SP65, 11 for 1LP65",51.3 to 157 µM
same,GI50,human cancer cell lines; read-out: average GI50,30.4 µM
same,GI50,Prostate PC3 cells; [3],22.9 ± 1.8 µM
same,IC50,Prostate PC3 cells; [3],37.5 ± 4.6 µM
same,LC99,Prostate PC3 cells; [3],86.3 ± 8.9 µM
same,TGI,Prostate PC3 cells; [3],40.5 ± 2.8 µM and 40.5 µM
same,Dose reduction value AMF ÷ 1LP65,Prostate PC3 cells; at GI50,2.3 fold
same,Dose reduction value AMF ÷ 1LP65,Prostate PC3 cells; at IC50,2.8 fold
same,Dose reduction value AMF ÷ 1LP65,Prostate PC3 cells; at TGI,7.4 fold
same,CC50,Prostate PC3 cells; [4],60 ± 1.1 µM
same,CC50,A549 NSCLC cells,155 ± 8 µM
same,GI50,A549 NSCLC cells,52.3 µM and 52 µM
same,IC50,A549 NSCLC cells,66.6 ± 7.9 µM
same,LC99,A549 NSCLC cells,187 ± 11 µM
same,TGI,A549 NSCLC cells,126 ± 3 µM and 126 µM
same,Dose reduction value AMF ÷ 1LP65,A549 NSCLC cells; at GI50,5.5 fold
same,Dose reduction value AMF ÷ 1LP65,A549 NSCLC cells; at IC50,4.4 fold
same,GI50,A549 NSCLC cells; [10],17.1 µM
same,IC50,A549 NSCLC cells; [10],33.1 µM
same,GI50,A549 NSCLC cells; [11],38.6 µM
same,IC50,A549 NSCLC cells; [11],51 µM
same,GI50,Prostate LNCaP cells; [3],28.3 ± 1.9 µM
same,IC50,Prostate LNCaP cells; [3],44.3 ± 2.8 µM
same,LC99,Prostate LNCaP cells; [3],114 ± 8.4 µM
same,TGI,Prostate LNCaP cells; [3],51.7 ± 3.8 µM
same,Dose reduction value AMF ÷ 1LP65,Prostate LNCaP cells; at GI50,5.3 fold
same,Dose reduction value AMF ÷ 1LP65,Prostate LNCaP cells; at IC50,8.5 fold
same,CC50,Prostate LNCaP cells; [4],88.8 ± 7.1 µM
same,GI50,NCI-H1975 NSCLC cells; [3],38.9 ± 2 µM
same,IC50,NCI-H1975 NSCLC cells; [3],52.3 ± 4.4 µM
same,LC99,NCI-H1975 NSCLC cells; [3],86.8 ± 2.7 µM
same,TGI,NCI-H1975 NSCLC cells; [3],51.8 ± 4.9 µM
same,Dose reduction value AMF ÷ 1LP65,NCI-H1975 NSCLC cells; at GI50,3.3 fold
same,CC50,NCI-H1975 NSCLC cells; [4],63.3 ± 5.2 µM
same,GI50,[1]; [3],36.5 ± 2.3 µM
same,IC50,[1]; [3],47.3 ± 2.2 µM
same,LC99,[1]; [3],83.9 ± 2.9 µM
same,TGI,[1]; [3],46.9 ± 2.5 µM
same,CC50,[1]; [12],59.9 ± 2.9 µM
same,Dose reduction value AMF ÷ 1LP65,[1]; at GI50,2.1 fold
same,Dose reduction value AMF ÷ 1LP65,[1]; at IC50,5.8 fold
same,Dose reduction value AMF ÷ 1LP65,[1]; at TGI,5.4 fold
same,GI50,[2]; [3],41.8 ± 5.9 µM
same,IC50,[2]; [3],52.4 ± 4.8 µM
same,LC99,[2]; [3],135 ± 6.6 µM
same,TGI,[2]; [3],76.4 ± 9.2 µM and 76.4 µM
same,CC50,[2]; [12],110 ± 4.7 µM
same,Dose reduction value AMF ÷ 1LP65,[2]; at GI50,5.8 fold

# Reference: PMC10419174, “WR1065 conjugated to thiol-PEG polymers as novel anticancer prodrugs: broad spectrum efficacy, synergism, and drug resistance reversal” (Frontiers in Oncology, 2023)
